Results: patent publication US9295667B2, “Pharmaceutical composition for preventing or treating diabetes or fatty liver containing a CYP4A inhibitor as an active ingredient” (Korea Basic Science Institute, priority 2011, dated 2016)

Key:
C57BL/6J mice [1] = assay: Serum insulin ELISA in normal C57BL/6J mice; assay type: in vivo; details: normal wild type C57BL/6J mice, 5 mg/kg/day intraperitoneal, 2 weeks
Description: (§1) While the mice were sacrificed, their blood was obtained with their hearts being punctured. The concentration of serum insulin was determined by using a commercial mouse serum insulin ELISA kit (Shibayagi Co., Ltd.) according to the manufacturer's instructions. Lipid peroxidation was measured by using OxiSelect™ TBARS Assay Kit (Cell Biolabs, Inc.) to quantify malondialdehyde (MDA), a natural by-product of lipid peroxidation in the liver homogenates. The level of triglyceride in the mice livers was measured by using Triglyceride Quantification Kit (Abcam).

db/db mice [2] = assay: Liver tissue sections, hematoxylin-eosin staining, db/db mice; assay type: in vivo; details: 5 mg/kg/day intraperitoneal, 2 weeks
Description: (§2) Male C57BL/6J and C57BL/KsJ-db/db mice were purchased from Japan SLC. HET0016 (5 mg/kg/day) and clofibrate (400 mg/kg/day) were injected intraperitoneally into eight (8)-week-old mice for two (2) weeks. Control littermate mice for HET0016 were treated with DMSO, while control littermate mice for clofibrate were treated with corn oil. Intraperitoneal glucose tolerance test (IPGTT) was performed after overnight fasting followed by intraperitoneal injection of lg/kg of glucose dissolved in PBS. The concentrations of blood glucose were measured using a One Touch Ultra glucometer (LifeScan, Inc.) before (0 min) and at 15, 30, 60, 90 and 120 min. after glucose injection. Livers isolated from 10-week-old mice were fixed in 10% neutral buffered formalin solution (Sigma), and paraffin sections were stained with hematoxylin-eosin.

db/db mice [3] = assay: Serum insulin ELISA in db/db mice; assay type: in vivo; details: 5 mg/kg/day intraperitoneal, 2 weeks
Description: as §1

[4] = system: cleaved Caspase-3 and -9, Bax and Bcl-2; assay: Apoptosis markers by Western blotting in liver of db/db mice; assay type: in vivo; details: 5 mg/kg/day intraperitoneal, 2 weeks
Description: as §2
(§3) Proteins were denatured at 95° C., and separated by SDS-PAGE, followed by electroblotting on a membrane made of nitrocellulose (NC) or polyvinylidene difluoride (PVDF). After blocking in TBST (Tris-buffered Saline, 0.1% Tween-20) containing 5% non-fat milk (skim milk) or 5% bovine serum albumin (BSA), the membrane was incubated with labeled primary antibodies. Subsequently, the membrane was washed with TBST and further incubated with secondary antibodies coupled with horseradish peroxides. Protein blots were detected by using ECL kit and visualized by a luminescence imaging analyzer of LAS-4000 mini system and software (FujiFilm). Following antibodies were utilized: mouse anti-β-actin (sc-47778), rabbit anti-CYP4A (sc-98988, Santa Cruz Biotechnology), mouse anti-ATF6 (IMG-273, Imgenex), mouse anti-eIF2α (ab5369), rabbit anti-phospho-eIF2α Ser51 (ab32157), rabbit anti-IRE1 (ab37073, Abcam), rabbit anti-PERK(#3192), rabbit anti-phospho-PERK Thr980 (#3179), rabbit anti-BiP (#3177), mouse anti-CHOP (#2895), rabbit anti-SAPK/JNK (#9252), rabbit anti-phospho-SAPK/JNK […] (#9251), rabbit anti-Insulin receptor β (#3025), rabbit anti-phospho-Insulin receptor β Tyr1150/1151 (#3024), rabbit anti-Akt (#4691), rabbit anti-phospho-Akt Ser473 (#4060), rabbit anti-Bcl-2 (#2876), rabbit anti-Bax (#2772), rabbit anti-divided caspase-3 (#9664), rabbit anti-divided caspase-9 (#9509), rabbit anti-Bax (#2772, Cell Signaling Technology), rabbit anti-ERP72 (obtained from Dr. O. Y. Kwon, College of Medicine, Chungnam National University).

db/db mice [5] = assay: Level of blood glucose following 6 hours' fasting in db/db mice; assay type: in vivo; details: 5 mg/kg/day intraperitoneal, 2 weeks
Description: as §2, with “Intraperitoneal glucose tolerance test (IPGTT) was performed after overnight fasting followed by intraperitoneal injection of lg/kg of glucose dissolved in PBS.” left out

C57BL/6J mice [6] = assay: Liver triglyceride (TG) level in C57BL/6J mice; assay type: in vivo; details: normal wild type C57BL/6J mice, 5 mg/kg/day intraperitoneal, 2 weeks
Description: as §1

[7] = system: insulin receptor (IR) and Akt; assay: In vivo insulin signaling (phosphorylation of IR and Akt) in liver of db/db mice; details: 5 mg/kg/day intraperitoneal, 2 weeks
Description: as §2
Proteins were denatured at 95° C., and separated by SDS-PAGE, followed by electroblotting on a membrane made of nitrocellulose (NC) or polyvinylidene difluoride (PVDF). After blocking in TBST (Tris-buffered Saline, 0.1% Tween-20) containing 5% non-fat milk (skim milk) or 5% bovine serum albumin (BSA), the membrane was incubated with labeled primary antibodies. […] Protein blots were detected by using ECL kit and visualized by a luminescence imaging analyzer of LAS-4000 mini system and software (FujiFilm). […]

[8] = system: human hepatoma HepG2 cells; assay: Tunicamycin-induced ER stress in HepG2 cells, Western blotting; assay type: cell-based; details: 4 μg/ml tunicamycin, combined treatment HET0016, 6 hours
Description: HepG2 cells were cultured in a Dulbecco's Modified Eagle Medium (DMEM, Gibco) Low Glucose supplemented with heat-inactivated 10% fetal bovine serum (FBS) and antibiotics at 37° C. in the presence of 5% moisturized CO2 and 95% air. The above cells were plated in a concentration of 3×10^4 cells/cm^2 and maintained in the cell culture medium for 24 hours prior to the following chemical processing. […] As a control, HepG2 cells were treated with DMSO.
as §3

db/db mice [9] = assay: TBARS assay of MDA formation (lipid peroxidation) in liver of db/db mice; assay type: in vivo; details: 5 mg/kg/day intraperitoneal, 2 weeks
Description: as §1

[10] = system: ER stress markers (PERK, phospho-eIF2α, CHOP, phospho-JNK); assay: Western blotting of ER stress markers in liver tissues of db/db mice; assay type: in vivo; details: 5 mg/kg/day intraperitoneal, 2 weeks
Description: as §2
Liver microsomes were prepared from fresh mice livers by applying a slight modification to the above described methods. Separated livers were thoroughly sprinkled with 1.15% KCl solution. Subsequently, the livers were homogenized with 4 times volume of a homogenizing buffer (0.1 M Tris-HCl, pH 7.4; 0.1 M KCl; […], pH 7.5; 25 μM butylated hydroxyltoluene). In order to remove un-destructed cells, nuclei and mitochondria, the obtained homogenate was centrifuged in a low-powered centrifugation (1,000× g, 4° C. for 15 min.) The obtained supernatant was then centrifuged in a higher powered centrifugation (100,000× g, 4° C. for 60 min.), resulting in the precipitation of microsomes. Pellets of compactly packed microsomes were re-suspended in 3 ml of an ice-cooled pyrophosphate buffer (0.1 M potassium pyrophosphate; 1 mM EDTA, pH 7.5; 20 μM butylated hydroxyltoluene) by using a homogenizer, followed by further centrifugation at 100,000× g, 4° C. for 60 min. The washed microsome pellets were finally suspended in 2 ml of an ice-cooled microsome buffer (10 mM Tris-HCl, pH 7.4; 1 mM EDTA, pH 7.5; 20% glycerol).
Proteins were denatured at 95° C., and separated by SDS-PAGE, followed by electroblotting on a membrane made of nitrocellulose (NC) or polyvinylidene difluoride (PVDF). After blocking in TBST (Tris-buffered Saline, 0.1% Tween-20) containing 5% non-fat milk (skim milk) or 5% bovine serum albumin (BSA), the membrane was incubated with labeled primary antibodies. Subsequently, the membrane was washed with TBST and further incubated with secondary antibodies coupled with horseradish peroxides. Protein blots were detected by using ECL kit and visualized by a luminescence imaging analyzer of LAS-4000 mini system and software (FujiFilm). […]

C57BL/6J mice [11] = assay: IPGTT in normal C57BL/6J mice; assay type: in vivo; details: normal wild type C57BL/6J mice, same doses as db/db mice (5 mg/kg/day intraperitoneal, 2 weeks)
Description: as §2

C57BL/6J mice [12] = assay: Liver tissue sections, hematoxylin-eosin staining, C57BL/6J mice; assay type: in vivo; details: normal wild type C57BL/6J mice, 5 mg/kg/day intraperitoneal, 2 weeks
Description: as §2

db/db mice [13] = assay: Intraperitoneal glucose tolerance test (IPGTT) in db/db mice; assay type: in vivo; details: 5 mg/kg/day intraperitoneal, 2 weeks, 1 g/kg glucose
Description: as §2

serum insulin level (C57BL/6J mice [1]): no differences
hepatic steatosis (level of TG) (C57BL/6J mice [6]): no differences
insulin resistance (IPGTT) (C57BL/6J mice [11]): not altered
Structure (SMILES): CCCCc1ccc(N=CNO)c(C)c1 [HET0016, N-hydroxy-N′-(4-butyl-2-methylphenyl)-formamidine]
severe hepatic steatosis (db/db mice [2]): relieved
level of serum insulin (db/db mice [3]): notably reduced
apoptosis of the diabetic liver tissues [4]: inhibited
expression of Bax [4]: suppressed
expression of Bcl-2 [4]: increased
level of active forms of caspase-3 and -9 [4]: reduced
level of blood glucose (db/db mice [5]): decreased
phosphorylation of Akt [7]: increased
phosphorylation of insulin receptor (IR) [7]: increased
expression of PERK [8]: remarkably down-regulate
expression of phospho-JNK [8]: remarkably down-regulate
expression of phospho-eIF2α [8]: remarkably down-regulate
increase of hepatic lipid peroxidation (MDA) (db/db mice [9]): notably reduced
activation of JNK [10]: markedly decreased
activity of PERK downstream signaling (phosphorylation status of eIF2α, expression level of CHOP) [10]: reduced
expression of Cyp4a [10]: not changed
expression of PERK [10]: reduced
hepatic physiology (liver sections) (C57BL/6J mice [12]): no differences
insulin resistance (IPGTT) (db/db mice [13]): significantly improved
